The record followed here is patent publication US20200237698A1, “Viral Inhibitor” (priority 2017, published 2020).

For data set [1], the system named is all three classes of fusion proteins, including Zika, EBOV, influenza A virus (IAV), SFV, VEEV, VSV and EBV. Type of data set: cell-based. The settings on record: for fusion blocked: 10 μM.
The target in another data set is EBOV fusion protein (Zaire ebolavirus, UniProt Q05320). The format is cell-based, Ebola.
Another data set concerns HCMV-GFP. The data set is described as follows: HCMV-GFP infection of HFF evaluated by fluorescent microscope. The format is cell-based. The settings on record: 7 days.
Data set [2] concerns human Adenovirus Type 5 (dE1/E3) containing GFP (Ad-GFP). The data set is described as follows: Ad-GFP infection of HEp2 cells evaluated by fluorescent microscope. Type of data set: cell-based. The settings on record: 10 μM, HEp2, 20 MOI, 24 hours.
The subject of another data set is ZIKV (strain PRVABC59). The data set is described as follows: ZIKV infection of Normal Human Astrocytes, Zika viral RNA by Taqman real-time PCR. The format is cell-based, Zika virus. The following applies: 5 μM to 20 μM, day 7. (In general: Quantitative PCR measures a nucleic acid by following its amplification.)
Data set [3] deals with HSV-1 F'. The data set is described as follows: HSV-1 stock pre-treated with GA, infection of HEp2 or 293T, western blotting of ICP27, ICP8, Us11. The format is cell-based. The following applies: 10 MOI stock treated 1 hour with 50 μM, diluted to 0.5 MOI / 2.5 μM; HEp2 and 293T; 5, 10 and 29 hours post-infection. (A western blot detects proteins with antibodies after separation by electrophoresis.)

Data set [4] has as its system two clinical isolates of HCMV. The data set is described as follows: HCMV plaque assay in human foreskin fibroblasts. Type of data set: cell-based. The settings on record: HFF, 0-10 μM GA C15:1, 7 days.
For data set [5], the system named is HSV-1 F'. The data set is described as follows: GA added to already HSV-1 infected HEp2 and 293T cells, WB detection of HSV-1 proteins. Type of data set: cell-based. The settings on record: 10 μM added 2 hours after infection at 1 MOI.
Another data set concerns HCMV. The data set is described as follows: HCMV DNA copies in infected HFF by qPCR targeting the viral polymerase gene. The format is cell-based. The following applies: 7 dpi.
For data set [6], the system named is HEp2, 293T, Human foreskin fibroblasts (HFF) and Normal Human Astrocytes (NHAs). The data set is described as follows: Toxicity of GA to the tested cells. The settings on record: at the active concentration (not shown).

EBOV fusion protein, sequence (Q05320 33-501 limits assumed): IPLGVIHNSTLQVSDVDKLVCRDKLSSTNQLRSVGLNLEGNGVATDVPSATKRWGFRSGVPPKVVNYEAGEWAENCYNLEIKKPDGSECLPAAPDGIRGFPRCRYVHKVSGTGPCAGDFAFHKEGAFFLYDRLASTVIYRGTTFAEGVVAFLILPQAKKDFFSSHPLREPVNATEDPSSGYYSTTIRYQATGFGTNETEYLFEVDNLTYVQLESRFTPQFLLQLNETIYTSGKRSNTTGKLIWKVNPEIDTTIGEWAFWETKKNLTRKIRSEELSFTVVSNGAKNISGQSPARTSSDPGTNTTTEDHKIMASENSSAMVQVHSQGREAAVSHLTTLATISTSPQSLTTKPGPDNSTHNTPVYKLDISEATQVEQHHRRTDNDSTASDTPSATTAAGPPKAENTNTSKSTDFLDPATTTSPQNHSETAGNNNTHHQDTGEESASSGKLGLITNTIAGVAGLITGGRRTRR
EBOV fusion protein, sequence (Q05320 502-676 limits assumed): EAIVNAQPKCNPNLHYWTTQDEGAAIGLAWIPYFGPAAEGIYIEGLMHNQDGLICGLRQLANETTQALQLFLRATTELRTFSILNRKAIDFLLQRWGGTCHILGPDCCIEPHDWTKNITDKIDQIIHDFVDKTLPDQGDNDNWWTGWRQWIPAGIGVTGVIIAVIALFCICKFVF

As to `CCCCCCCCCCCCCc1cccc(O)c1C(=O)O` [GA C13:0, Ginkgolic acid (GA) C13:0], the fusion blocked in data set [1] is listed as 100%. Also, the “inhibition of Ebola mediated cell-cell fusion” value against EBOV fusion protein is listed as “inhibition of Ebola mediated cell-cell fusion”. Besides, the “effect on HCMV-GFP infection / plaque formation” value in the data set with HCMV-GFP (10 μM) is given as “strong inhibitory effect on HCMV infection”. Moreover, in [2], the “inhibition of nonenveloped Adenovirus infection” value is “did not inhibit”.

For the molecule `CCCCCC/C=C\CCCCCCCc1cccc(O)c1C(=O)O` [GA C15:1, ginkgolic acid C15:1], the fusion blocked in [1] is 100%. On EBOV fusion protein, the “inhibition of Ebola mediated cell-cell fusion” value is reported as “inhibition of Ebola mediated cell-cell fusion”. The “effect on HCMV-GFP infection / plaque formation” value with HCMV-GFP (10 μM) is listed as “only single cells were infected”. In the data set with ZIKV (strain PRVABC59), the “decrease in Zika viral RNA levels” value is given as 80-90%. Moreover, in the data set on HSV-1 F' [3], the “HSV-1 infection (ICP27, ICP8, Us11 by WB)” value is given as “complete inhibition of the virus”. The “inhibition of nonenveloped Adenovirus infection” value in data set [2] is given as “did not inhibit”. Moreover, the “HCMV infectivity monitored by plaquing efficiency” value in data set [4] was “inhibited HCMV infectivity”. In addition, the “HSV-1 protein synthesis in already infected cells (WB)” value in the data set on HSV-1 F' [5] was “inhibiting the virus from that point”.

In data set [1], `CCCCCC/C=C\CCCCCCCCCc1cccc(O)c1C(=O)O` [GA C17:1, Ginkgolic Acid C 17:1] had a fusion blocked of 100%. Further, at EBOV fusion protein, the “inhibition of Ebola mediated cell-cell fusion” value is on record as “inhibition of Ebola mediated cell-cell fusion”. In the data set with HCMV-GFP (10 μM), the “effect on HCMV-GFP infection / plaque formation” value was “strong inhibitory effect on HCMV infection”. Also, the “inhibition of nonenveloped Adenovirus infection” value in data set [2] was “did not inhibit”.

Regarding `Nc1nc(O)c2ncn(COC(CO)CO)c2n1` [GCV, Ganciclovir, reference compound], in the data set with HCMV-GFP (16 μM GCV), the “effect on HCMV-GFP infection / plaque formation” value is on record as “very strong inhibition of the virus”.

For Ginkgolic acid [GA], in [1], the “fusion after GA was washed” value is reported as “fusion was restored” and the “fusion inhibition with oleic acid (OA) added together with GA” value was “abolished the inhibitory effect of GA”. In the data set with HCMV (GA added 3 hours after infection), the “reduction of viral DNA” value is given as “about 80%”. Besides, the “HCMV DNA copies, dose dependence” value in the data set with HCMV (different concentrations of GA) is “reduced in a dose dependent manner”. Moreover, the toxicity entry in data set [6] is listed as “no toxicity at the active inhibitory range”.
